The results in this text go back to ChEMBL document CHEMBL5338715, “Identification of (S)-1-(2-(2,4-difluorophenyl)-4-oxothiazolidin-3-yl)-3-(4-((7-(3-(4-ethylpiperazin-1-yl)propoxy)-6-methoxyquinolin-4-yl)oxy)-3,5-difluorophenyl)urea as a potential anti-colorectal cancer agent” (Eur J Med Chem, 2022).

The term IC50 denotes the concentration that inhibits the measured activity by half. For orientation: half-life means how long it takes for the measured level to halve.

One series has as its system LoVo. The series can be described thus: cells. To be noted: Homo sapiens.
The next series concerns COLO 205. The series can be described thus: cells. To be noted: Homo sapiens.
The next series relates to HT-29. The series can be described thus: cells. Particulars: Homo sapiens.
The test system of the next series is HCT-116. In words: cells. Particulars: Homo sapiens.
Series [1] deals with BaF3. In words: cells. To be noted: Mus musculus, BaF3, 72 h.
Series [2] has as its system BaF3. The series can be described thus: cells. To be noted: Mus musculus, BaF3, 72 h. This is another data set of the same source.
Series [3] is described as follows: Cytotoxicity against human FHC cells assessed as cell growth inhibition by MTT assay. The class given is toxicity, cell-based.
Series [4] is described as follows: Metabolic stability in human liver microsomes assessed as half life at 1 uM measured upto 45 mins in presence of NADPH by LC-MS/MS analysis. The class given is ADME, Microsome. (Microsomes from liver hold many membrane-bound enzymes, among them those of drug oxidation.)
Series [5] is described as follows: Metabolic stability in human liver microsomes assessed as parent compound remaining at 1 uM measured after 45 mins in presence of NADPH by LC-MS/MS analysis. The class given is ADME, Microsome. To be noted: read-out: Stability.
A short description of series [6]: Metabolic stability in human liver microsomes assessed as intrinsic clearance at 1 uM measured upto 45 mins in presence of NADPH by LC-MS/MS analysis. The format is ADME, Microsome. To be noted: read-out: CLH.
The target in series [7] is Hepatocyte growth factor receptor (Homo sapiens, UniProt P08581). In words: Inhibition of c-Met (unknown origin).
Chain of Hepatocyte growth factor receptor (P08581 whole entry): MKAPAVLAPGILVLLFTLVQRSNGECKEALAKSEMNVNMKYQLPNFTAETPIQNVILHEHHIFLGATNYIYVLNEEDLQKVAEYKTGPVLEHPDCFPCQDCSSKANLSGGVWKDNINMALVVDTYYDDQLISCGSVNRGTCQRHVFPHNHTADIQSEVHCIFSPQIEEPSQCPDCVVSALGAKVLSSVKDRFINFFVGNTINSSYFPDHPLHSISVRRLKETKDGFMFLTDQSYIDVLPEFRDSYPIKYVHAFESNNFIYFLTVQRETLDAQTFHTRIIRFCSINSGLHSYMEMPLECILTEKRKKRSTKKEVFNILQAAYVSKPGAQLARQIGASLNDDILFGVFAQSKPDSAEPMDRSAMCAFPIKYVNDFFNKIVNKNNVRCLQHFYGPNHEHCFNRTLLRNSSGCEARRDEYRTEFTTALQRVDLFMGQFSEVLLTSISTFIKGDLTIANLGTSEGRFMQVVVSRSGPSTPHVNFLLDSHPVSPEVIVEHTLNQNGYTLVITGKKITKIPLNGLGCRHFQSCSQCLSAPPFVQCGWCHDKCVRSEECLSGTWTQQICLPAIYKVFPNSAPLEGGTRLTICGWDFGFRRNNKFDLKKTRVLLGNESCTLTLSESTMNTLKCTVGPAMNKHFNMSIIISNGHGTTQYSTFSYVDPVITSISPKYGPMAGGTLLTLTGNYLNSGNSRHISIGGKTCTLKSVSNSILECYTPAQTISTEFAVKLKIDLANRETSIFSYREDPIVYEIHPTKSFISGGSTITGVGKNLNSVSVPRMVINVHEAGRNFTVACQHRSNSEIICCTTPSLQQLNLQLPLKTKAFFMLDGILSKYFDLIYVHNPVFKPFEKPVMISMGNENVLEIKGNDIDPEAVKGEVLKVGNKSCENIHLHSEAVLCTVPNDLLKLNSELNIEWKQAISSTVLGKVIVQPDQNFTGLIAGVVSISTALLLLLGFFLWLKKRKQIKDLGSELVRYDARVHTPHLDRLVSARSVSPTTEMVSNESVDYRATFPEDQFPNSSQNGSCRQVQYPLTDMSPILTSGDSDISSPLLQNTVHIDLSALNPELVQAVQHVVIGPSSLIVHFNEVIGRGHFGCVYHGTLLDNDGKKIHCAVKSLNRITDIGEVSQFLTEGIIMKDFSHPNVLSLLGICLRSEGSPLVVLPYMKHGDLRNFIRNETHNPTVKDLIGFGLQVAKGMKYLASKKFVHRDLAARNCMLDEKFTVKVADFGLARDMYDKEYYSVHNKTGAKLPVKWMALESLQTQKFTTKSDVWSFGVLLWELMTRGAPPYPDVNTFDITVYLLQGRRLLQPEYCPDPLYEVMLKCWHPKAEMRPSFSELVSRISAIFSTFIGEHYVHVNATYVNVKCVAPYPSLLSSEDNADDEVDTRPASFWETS
Another series concerns SNU-5. The series can be described thus: cells. Particulars: Homo sapiens.
The next series relates to EBC-1. The series can be described thus: cells. To be noted: Homo sapiens.
A short description of a further series: cells. To be noted: Homo sapiens, TT.
The test system of the next series is MKN-45. The series can be described thus: cells. Particulars: Homo sapiens.
Series [8] concerns the target T1, Proto-oncogene tyrosine-protein kinase receptor Ret (Homo sapiens, UniProt P07949). In words: Inhibition of RET (unknown origin) assessed as residual activity at 1 uM by kinome scan assay relative to control.
Series [9] concerns the target Platelet-derived growth factor receptor beta (Homo sapiens) (UniProt P09619). In words: Inhibition of PDGFRbeta (unknown origin) assessed as residual activity at 1 uM by kinome scan assay relative to control.
Another series deals with NCI-H1993. In words: cells. Particulars: Homo sapiens.
Series [10] deals with T2, Tyrosine-protein kinase ABL1 (Homo sapiens, UniProt P00519). In words: Inhibition of ABL (unknown origin) assessed as residual activity at 1 uM by kinome scan assay relative to control.
T2 sequence (P00519 whole entry): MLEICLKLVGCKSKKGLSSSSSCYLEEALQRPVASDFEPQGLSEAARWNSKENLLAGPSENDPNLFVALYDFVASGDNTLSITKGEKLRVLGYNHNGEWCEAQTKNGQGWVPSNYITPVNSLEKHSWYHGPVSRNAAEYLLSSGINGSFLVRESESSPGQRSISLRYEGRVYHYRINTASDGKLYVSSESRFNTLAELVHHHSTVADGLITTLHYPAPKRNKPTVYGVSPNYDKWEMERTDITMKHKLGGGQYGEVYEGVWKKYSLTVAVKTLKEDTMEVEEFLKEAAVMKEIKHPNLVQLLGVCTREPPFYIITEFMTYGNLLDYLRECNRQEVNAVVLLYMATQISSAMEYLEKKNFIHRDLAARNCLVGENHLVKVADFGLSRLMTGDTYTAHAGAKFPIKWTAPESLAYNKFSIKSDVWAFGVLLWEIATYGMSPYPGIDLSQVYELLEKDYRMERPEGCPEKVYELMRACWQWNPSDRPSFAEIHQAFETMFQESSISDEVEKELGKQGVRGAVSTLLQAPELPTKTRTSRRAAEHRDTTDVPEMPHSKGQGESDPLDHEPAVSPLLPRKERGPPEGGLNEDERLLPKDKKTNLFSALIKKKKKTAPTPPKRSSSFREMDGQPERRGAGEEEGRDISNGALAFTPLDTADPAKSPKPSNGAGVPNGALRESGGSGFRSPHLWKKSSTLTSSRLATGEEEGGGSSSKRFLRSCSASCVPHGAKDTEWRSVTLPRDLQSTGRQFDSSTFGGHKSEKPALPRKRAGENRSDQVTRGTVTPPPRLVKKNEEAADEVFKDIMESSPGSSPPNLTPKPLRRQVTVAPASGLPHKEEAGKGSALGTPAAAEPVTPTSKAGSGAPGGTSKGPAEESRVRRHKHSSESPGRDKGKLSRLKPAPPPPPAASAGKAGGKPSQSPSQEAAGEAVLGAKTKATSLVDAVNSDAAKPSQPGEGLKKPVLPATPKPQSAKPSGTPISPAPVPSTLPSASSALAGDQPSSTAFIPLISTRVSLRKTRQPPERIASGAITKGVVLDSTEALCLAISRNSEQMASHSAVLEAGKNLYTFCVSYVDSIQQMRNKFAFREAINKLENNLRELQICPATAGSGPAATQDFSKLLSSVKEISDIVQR
For series [11], the target named is T1, Proto-oncogene tyrosine-protein kinase receptor Ret. In words: Inhibition of RET (unknown origin) by kinome scan assay.
For series [12], the target named is T2, Tyrosine-protein kinase ABL1. The series can be described thus: Inhibition of ABL (unknown origin) by kinome scan assay.

T1 sequence (P07949 whole entry): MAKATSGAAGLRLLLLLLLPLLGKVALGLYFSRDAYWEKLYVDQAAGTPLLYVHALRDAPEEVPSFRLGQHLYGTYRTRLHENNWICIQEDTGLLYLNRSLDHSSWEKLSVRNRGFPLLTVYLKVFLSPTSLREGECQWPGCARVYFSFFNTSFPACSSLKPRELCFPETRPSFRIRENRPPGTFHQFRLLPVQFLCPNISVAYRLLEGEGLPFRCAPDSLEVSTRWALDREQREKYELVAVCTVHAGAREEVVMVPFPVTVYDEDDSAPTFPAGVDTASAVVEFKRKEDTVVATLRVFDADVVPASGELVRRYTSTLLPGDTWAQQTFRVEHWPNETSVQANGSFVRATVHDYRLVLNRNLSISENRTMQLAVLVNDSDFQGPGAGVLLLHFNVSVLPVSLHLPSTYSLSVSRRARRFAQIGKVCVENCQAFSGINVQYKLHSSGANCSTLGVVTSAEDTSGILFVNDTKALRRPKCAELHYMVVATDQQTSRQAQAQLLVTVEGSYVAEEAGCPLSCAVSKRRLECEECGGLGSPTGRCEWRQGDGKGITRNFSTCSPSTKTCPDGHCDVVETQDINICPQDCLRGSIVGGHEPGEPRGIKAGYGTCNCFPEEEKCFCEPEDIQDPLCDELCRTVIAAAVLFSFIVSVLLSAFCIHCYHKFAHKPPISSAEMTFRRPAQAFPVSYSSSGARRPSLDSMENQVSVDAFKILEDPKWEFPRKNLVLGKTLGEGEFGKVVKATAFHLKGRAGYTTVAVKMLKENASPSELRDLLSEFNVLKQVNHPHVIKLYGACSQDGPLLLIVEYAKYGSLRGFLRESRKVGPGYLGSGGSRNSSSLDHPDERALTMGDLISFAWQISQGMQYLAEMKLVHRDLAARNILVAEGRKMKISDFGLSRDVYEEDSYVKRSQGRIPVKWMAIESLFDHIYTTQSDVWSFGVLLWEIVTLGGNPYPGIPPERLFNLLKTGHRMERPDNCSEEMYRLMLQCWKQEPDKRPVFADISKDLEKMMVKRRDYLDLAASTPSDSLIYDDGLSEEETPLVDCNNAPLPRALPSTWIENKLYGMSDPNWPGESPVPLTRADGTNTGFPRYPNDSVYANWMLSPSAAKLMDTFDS
Chain of Platelet-derived growth factor receptor beta (Homo sapiens) (P09619 whole entry): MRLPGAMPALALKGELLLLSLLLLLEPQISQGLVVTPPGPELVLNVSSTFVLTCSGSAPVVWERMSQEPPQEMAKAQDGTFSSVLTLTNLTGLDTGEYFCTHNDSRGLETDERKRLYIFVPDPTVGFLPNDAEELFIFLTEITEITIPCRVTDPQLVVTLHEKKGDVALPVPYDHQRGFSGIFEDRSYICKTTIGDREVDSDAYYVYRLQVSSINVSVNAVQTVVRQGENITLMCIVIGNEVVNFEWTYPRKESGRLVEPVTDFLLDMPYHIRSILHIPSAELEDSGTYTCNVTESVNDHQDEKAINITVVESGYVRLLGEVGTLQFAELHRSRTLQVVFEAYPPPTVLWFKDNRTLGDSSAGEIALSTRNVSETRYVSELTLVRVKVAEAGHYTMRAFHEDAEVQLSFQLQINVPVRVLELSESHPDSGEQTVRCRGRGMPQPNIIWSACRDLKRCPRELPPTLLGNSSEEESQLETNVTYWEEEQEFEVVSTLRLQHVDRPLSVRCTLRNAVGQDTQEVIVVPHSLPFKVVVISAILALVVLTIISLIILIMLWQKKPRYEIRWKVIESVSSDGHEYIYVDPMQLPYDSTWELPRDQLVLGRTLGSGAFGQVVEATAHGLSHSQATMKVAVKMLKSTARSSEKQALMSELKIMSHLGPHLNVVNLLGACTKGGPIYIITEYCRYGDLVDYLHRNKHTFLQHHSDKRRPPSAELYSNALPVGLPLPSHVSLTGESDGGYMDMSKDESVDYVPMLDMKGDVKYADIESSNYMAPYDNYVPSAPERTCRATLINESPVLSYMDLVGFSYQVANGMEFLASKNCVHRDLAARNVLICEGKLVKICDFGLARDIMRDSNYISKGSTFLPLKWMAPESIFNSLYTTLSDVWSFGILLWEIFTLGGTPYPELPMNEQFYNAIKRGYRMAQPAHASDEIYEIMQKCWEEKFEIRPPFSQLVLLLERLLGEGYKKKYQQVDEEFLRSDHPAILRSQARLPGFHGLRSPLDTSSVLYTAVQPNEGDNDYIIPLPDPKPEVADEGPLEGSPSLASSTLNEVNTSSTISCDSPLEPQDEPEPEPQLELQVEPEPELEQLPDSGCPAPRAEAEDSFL

Consider `CNC(=O)c1c(C)oc2cc(Oc3ncnc4cc(OC)c(OC)cc34)ccc12` [FRUQUINTINIB], for which the IC50 in the series on LoVo was more than 10000 nM; with COLO 205, more than 10000 nM; in the series on HT-29, 1500 nM; with HCT-116, 800 nM.

Take `CCN(CC)CCCOc1cc2nccc(Oc3ccc(NC(=O)NN4C(=O)CSC4c4c(F)cccc4F)cc3)c2cc1OC` (configuration not stated): the IC50 turned out to be 58 nM with BaF3 [1], 530 nM in the series with HT-29, 150 nM in the series on HCT-116 and 120 nM in the series on BaF3 [2].

Regarding `CCN(CC)CCCOc1cc2nccc(Oc3c(F)cc(NC(=O)NN4C(=O)CSC4c4c(F)cccc4F)cc3F)c2cc1OC` (configuration not stated), the IC50 with BaF3 [1] was 94 nM; in series [3] it was 3800 nM; in the series with HT-29, 140 nM; in the series with HCT-116 it was 440 nM; in the series with BaF3 [2], 220 nM.

In the case of `CCN(CC)CCCOc1cc2nccc(Oc3ccc(C(=O)NN4C(=O)CSC4c4c(F)cccc4F)cc3)c2cc1OC` (configuration not stated), the IC50 was 330 nM in the series on BaF3 [1], 680 nM in the series with HT-29, 3200 nM in the series on HCT-116 and 930 nM in the series with BaF3 [2].

As for `C[C@]12CC[C@H]3[C@@H](CCC4=CC(=O)CC[C@@]43C)[C@@H]1CC[C@@H]2O` [TESTOSTERONE], the half-life at 1 µM in series [4] is 0.177 h. Further, the remaining at 0.75 h, 1 µM in [5] is 8.1%. Further, in series [6], the CLint scaled at 1 µM was 164 mL/min/kg.

`CCN(CC)CCCOc1cc2nccc(Nc3ccc(NC(=O)NN4C(=O)CSC4c4c(F)cccc4F)cc3)c2cc1OC` (configuration not stated): the IC50 with BaF3 [1] was 2100 nM; in the series with HT-29, 5500 nM; in the series on HCT-116, more than 10000 nM; in the series on BaF3 [2] it was 4500 nM.

On to `CCN(CC)CCCOc1cc2nccc(Oc3ccc(CC(=O)NN4C(=O)CSC4c4c(F)cccc4F)cc3)c2cc1OC` (configuration not stated), for which the IC50 with BaF3 [1] amounted to 1300 nM; with HT-29, 1600 nM; in the series on HCT-116 it was 7800 nM; with BaF3 [2], 2600 nM.

For `COc1cc2c(Oc3ccc(NC(=O)NN4C(=O)CSC4c4c(F)cccc4F)cc3)ccnc2cc1OCCCN1CCCC1` (configuration not stated), the IC50 with BaF3 [1] was 66 nM; in the series on HT-29, 160 nM; with HCT-116 it was 810 nM; in the series on BaF3 [2] it was 150 nM.

For the compound `CNC(=O)c1cc(Oc2ccc(NC(=O)Nc3ccc(Cl)c(C(F)(F)F)c3)c(F)c2)ccn1` [REGORAFENIB], the figures for the IC50 in the series with HT-29 and in the series on HCT-116 were 8600 nM and 3500 nM, respectively.

Take `CCN1CCN(CCCOc2cc3nccc(Oc4c(F)cc(NC(=O)NN5C(=O)CSC5c5ccc(F)cc5)cc4F)c3cc2OC)CC1` (configuration not stated): the IC50 worked out at 71 nM in the series with BaF3 [1], 520 nM in the series on HT-29, 200 nM with HCT-116 and 140 nM with BaF3 [2].

On to `CCN1CCN(CCCOc2cc3nccc(Oc4c(F)cc(NC(=O)NN5C(=O)CSC5c5ccccc5)cc4F)c3cc2OC)CC1` (configuration not stated), for which the IC50 turned out to be 140 nM in the series with BaF3 [1], 140 nM in the series with HT-29, 210 nM with HCT-116 and 260 nM in the series on BaF3 [2].

Turning to `CCN(CC)CCCOc1cc2nccc(N(C)c3ccc(NC(=O)NN4C(=O)CSC4c4c(F)cccc4F)cc3)c2cc1OC` (configuration not stated), the IC50 in the series on BaF3 [1] was 2200 nM; in the series with HCT-116 it was more than 10000 nM; with BaF3 [2], 6900 nM.

Consider `CCN(CC)CCCOc1cc2nc(N)cc(Oc3ccc(NC(=O)NN4C(=O)CSC4c4c(F)cccc4F)cc3)c2cc1OC` (configuration not stated), for which the IC50 was 3300 nM in the series on BaF3 [1] and more than 10000 nM in the series on BaF3 [2].

In turn, `O=C(Nc1ccc(Oc2ccnc3c2CCN3)c(F)c1)c1c[nH]cc(-c2ccc(F)cc2)c1=O` registered an IC50 in series [7] of 6 nM.

For `CCN(CC)CCCOc1cc2nccc(Oc3ccc(NC(=O)NN4C(=O)CSC4c4c(F)cccc4F)cc3C)c2cc1OC` (configuration not stated), the IC50 in the series with BaF3 [1] was found to be 460 nM; with HT-29 it was 220 nM; with HCT-116 it was 640 nM; in the series with BaF3 [2], 840 nM.

On to `CCN1CCN(CCCOc2cc3nccc(Oc4ccc(NC(=O)NN5C(=O)CSC5c5c(F)cccc5F)cc4)c3cc2OC)CC1` (configuration not stated), for which the IC50 in the series on BaF3 [1] turned out to be 59 nM; in the series on HT-29 it was 220 nM; in the series on HCT-116, 110 nM; in the series with BaF3 [2], 130 nM.

On to `CCN1CCN(CCCOc2cc3nccc(Oc4c(F)cc(NC(=O)NN5C(=O)CSC5c5c(F)cccc5F)cc4F)c3cc2OC)CC1` (configuration not stated), for which the concentration for half-maximal inhibition (IC50) in the series with LoVo is 930 nM; in the series with COLO 205, 48 nM; in the series with BaF3 [1], 45 nM; in series [3], more than 10000 nM; with SNU-5, 270 nM; in the series on EBC-1, 160 nM. Besides, the IC50 was determined as 69 nM in the series with HT-29; 540 nM in the series on HCT-116; 2300 nM in “cells”; 76 nM in the series on BaF3 [2]; 610 nM in the series with MKN-45. For the same compound, the half-life at 1 µM in series [4] was determined as 1.47 h. Besides, the remaining at 0.75 h, 1 µM in series [5] is 70.1%. In series [6], the CLint scaled at 1 µM was 19.8 mL/min/kg.

Consider `CCN1CCN(CCCOc2cc3nccc(Oc4c(F)cc(NC(=O)NN5C(=O)CSC5c5ccc(F)cc5F)cc4F)c3cc2OC)CC1` (racemic), for which the IC50 turned out to be 1600 nM with LoVo; 35 nM in the series on COLO 205; 57 nM in the series with BaF3 [1]; 4200 nM in [3]; 170 nM in the series on SNU-5; 150 nM in the series with EBC-1. Further, the IC50 with NCI-H1993 turned out to be 1500 nM; with HT-29, 530 nM; with HCT-116, 98 nM; in [11], 27.9 nM; in the series “cells”, 780 nM; in series [12], 145 nM. Also, it took 380 nM to reach half-maximal inhibition in the series with MKN-45 (IC50). Besides, the Activity in series [8] amounted to 0.25%; in series [9] it was 0.1%; in [10] it was 0.25%. Further, the half-life at 1 µM in series [4] came to 2.7 h. In addition, the remaining at 0.75 h, 1 µM in series [5] came out at 82%. Also, the CLint scaled at 1 µM in series [6] was found to be 10.7 mL/min/kg.

In the case of `CCN1CCN(CCCOc2cc3nccc(Oc4c(F)cc(NC(=O)NN5C(=O)CS[C@@H]5c5ccc(F)cc5F)cc4F)c3cc2OC)CC1`, the 50% inhibitory concentration (IC50) with COLO 205 was 63 nM; in [3], 4500 nM. Moreover, the half-life at 1 µM in series [4] came to 2.58 h.

Consider `COc1cc2nccc(Oc3c(F)cc(NC(=O)NN4C(=O)CSC4c4c(F)cccc4F)cc3F)c2cc1OC` (configuration not stated), for which the IC50 with BaF3 [1] was 170 nM; with HT-29, 4100 nM; with HCT-116, more than 10000 nM; in the series on BaF3 [2], 650 nM.

On to `CCN(CC)CCCOc1cc2nccc(Oc3ccc(NC(=O)NN4C(=O)CSC4c4c(F)cccc4F)cc3OC)c2cc1OC` (configuration not stated), for which the half-maximal inhibitory concentration (IC50) was found to be 110 nM in the series with BaF3 [1], 680 nM with HT-29, 200 nM in the series on HCT-116 and 160 nM in the series with BaF3 [2].

For the compound `O=c1ccc2ccc(O)cc2o1` [UMBELLIFERONE], in series [4], the half-life at 1 µM amounted to 0.1 h. Moreover, the remaining at 0.75 h, 1 µM in [5] was 0.8%. The CLint scaled at 1 µM in series [6] stood at 289 mL/min/kg.

With `CCN1CCN(CCCOc2cc3nccc(Oc4c(F)cc(NC(=O)NN5C(=O)CSC5c5ccccc5F)cc4F)c3cc2OC)CC1` (configuration not stated), the IC50 in the series with LoVo was 1300 nM; with COLO 205, 63 nM; in the series on BaF3 [1], 53 nM; in series [3], more than 10000 nM; in the series with SNU-5 it was 880 nM; in the series with EBC-1, 230 nM. Also, the IC50 with NCI-H1993 stood at 2300 nM; in the series on HT-29 it was 110 nM; in the series with HCT-116 it was 140 nM; in the series with BaF3 [2] it was 88 nM; in the series on MKN-45, 2300 nM. Also, in series [4], the half-life at 1 µM was found to be 2.17 h. In addition, the remaining at 0.75 h, 1 µM in series [5] came out at 78.2%. Besides, in [6], the CLint scaled at 1 µM is 13.3 mL/min/kg.
